Consider one compound from ChEMBL document CHEMBL4725274 (Bioorg Med Chem Lett, 2020).

Molecules are shown by their SMILES. Active and inactive are the calls of the source. No cut-off for these calls is given here. Where a SMILES comes first, the peptide text is derived from it. The star is where a group is joined. Stearoyl = CCCCCCCCCCCCCCCCCC(=O)*

The target in series [1] is Substance-P receptor (Homo sapiens) (UniProt P25103). Kind of series: Binding affinity to NK1R (unknown origin) expressed in HEK293 cells assessed as reduction in cell viability in presence of p53 plasmid at N/P ratio of 2 incubated for 96 hrs by MTT assay relative to control. It counts as cell-based. For orientation: Formazan colour is commonly taken as a measure of viable cells.
Chain of Substance-P receptor (Homo sapiens) (P25103 whole entry): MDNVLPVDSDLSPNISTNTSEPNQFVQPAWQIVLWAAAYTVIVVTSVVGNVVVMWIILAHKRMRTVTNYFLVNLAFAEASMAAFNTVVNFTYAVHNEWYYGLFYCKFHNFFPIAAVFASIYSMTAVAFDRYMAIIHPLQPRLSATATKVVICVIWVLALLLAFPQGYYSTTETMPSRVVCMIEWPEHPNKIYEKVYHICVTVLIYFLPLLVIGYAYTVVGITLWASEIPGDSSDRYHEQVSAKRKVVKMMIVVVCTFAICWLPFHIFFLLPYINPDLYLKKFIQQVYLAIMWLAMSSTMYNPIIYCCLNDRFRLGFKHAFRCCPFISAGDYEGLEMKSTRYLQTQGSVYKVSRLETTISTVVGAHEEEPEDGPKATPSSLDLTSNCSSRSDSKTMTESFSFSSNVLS

For series [2] the target is unchanged. Kind of series: Binding affinity to NK1R (unknown origin) expressed in HEK293 cells assessed as reduction in cell viability in presence of p53 plasmid at N/P ratio of 1 incubated for 96 hrs by MTT assay relative to control. It counts as cell-based.
Series [3] shares this target. Kind of series: Binding affinity to NK1R (unknown origin) expressed in HEK293 cells assessed as reduction in cell viability in presence of p53 plasmid at N/P ratio of 0.5 to 3 incubated for 96 hrs by MTT assay. In kind it is cell-based.
A short description of series [4]: Drug uptake in HEK293 cells at 1 uM incubated for 1 hr by confocal microscopy analysis. It counts as ADME, cell-based. As to conditions: human, hek293, 1 h.
The target of series [5] is Substance-P receptor (Homo sapiens) (UniProt P25103). Kind of series: Binding affinity to NK1R (unknown origin) expressed in HEK293 cells assessed as reduction in cell viability in presence of p53 plasmid at N/P ratio of 3 incubated for 96 hrs by MTT assay relative to control. In kind it is cell-based.
The subject of series [6] is HEK293. Kind of series: Activation of luciferase (unknown origin) expressed in HEK293 cells in presence of pGL3 plasmid incubated for 30 mins by luciferase reporter gene assay. In kind it is cell-based. For orientation: In a reporter assay the amount or activity of a reporter protein is the signal.
For series [7], the system named is HEK293. Kind of series: Cytotoxicity against HEK293 cells assessed as reduction in cell viability in presence of p53 plasmid at N/P ratio of 0.5 to 3 incubated for 96 hrs by MTT assay. The note with it: human, hek293, 96 h. In kind it is cell-based.
A short description of series [8]: Drug uptake in HEK293 cells at 1 uM incubated for 1 hr by flow cytometry analysis. The note with it: human, hek293, 1 h. It counts as ADME, cell-based.
Series [9] relates to HEK293. Kind of series: Cytotoxicity against HEK293 cells assessed as reduction in cell viability incubated for 96 hrs by MTT assay. As to conditions: Homo sapiens, HEK293, 96 h. In kind it is cell-based.

With `CCCCCCCCCCCCCCCCCC(=O)N[C@@H](CCCCN)C(=O)N[C@@H](Cc1c[nH]c2ccccc12)C(=O)N[C@@H](CCCCN)C(=O)N[C@@H](CC(C)C)C(=O)N[C@@H](CCC(=O)O)C(=O)N[C@@H](CCCCN)C(=O)N[C@@H](CCCCN)C(=O)N[C@H](C(=O)NCC(=O)N[C@@H](C)C(=O)N[C@H](C(=O)N[C@@H](CC(C)C)C(=O)N[C@H](C(=O)N[C@@H](CS)C(=O)N[C@H](C(=O)N[C@@H](CC(C)C)C(=O)N[C@@H](CCCNC(=N)N)C(=O)N1CCC[C@H]1C(=O)N[C@@H](CCCCN)C(=O)N1CCC[C@H]1C(=O)N[C@@H](CCC(N)=O)C(=O)N[C@@H](CCC(N)=O)C(=O)N[C@@H](Cc1ccccc1)C(=O)N[C@@H](Cc1ccccc1)C(=O)NCC(=O)N[C@@H](CC(C)C)C(=O)N[C@@H](CCSC)C(N)=O)C(C)C)[C@@H](C)CC)C(C)C)[C@@H](C)CC` (Stearoyl-KWKLEKKIGAVLICVLRPKPQQFFGLM-NH2), the Activity in series [1] was 66.7%; in [2], 51.6%; in series [5], 70.2%; in the series with HEK293 [7], “Active”. In series [3], the outcome was Active. The Drug uptake result in [4] and in series [8] was “Active” in each case. In addition, the result in the series on HEK293 [6] was inactive. Also, the EC50 in the series with HEK293 [9] was 7.5 µM.

What is called EC50 is the concentration that produces a half-maximal response.
